Data as given in patent US20230212316A1, “IgG EPITOPE PEPTIDES THAT BIND […] AND METHODS OF USE THEREOF” (priority 2021, published 2023).
Where no end group is shown, it is not given here. [ ]: non-standard residue; d: D form. Cit = NC(=O)NCCC[C@H](N)C(=O)O

Tests used:
[1] = tested on: plasma IgM; assay: Pre-clinical RA peptide ELISA: plasma IgM binding to IgG1 peptides; parameters: species or system human; conditions: CCP− controls and anti-CCP+ subjects who do not develop RA imminently compared to anti-CCP+ subjects who do develop RA imminently; FIG. 10A
Text: Subjects were ≥18 years old.

[2] = tested on: plasma IgG; conditions: anti-CCP+ subjects who later develop RA compared to anti-CCP− subjects and CCP+ subjects who do not develop RA; FIG. 10B
Text: Human Subjects: Human subjects research was approved by the University of Wisconsin (UW) Institutional Review Board and complied with the Helsinki Declaration. Most sera were obtained from the UW Rheumatology Biorepository, which includes rheumatoid arthritis, systemic lupus erythematosus, Sjögren's disease (SjD), spondyloarthropathy, and controls (including current and never smokers) collected prior to 2019. Subjects were ≥18 years old. All subjects with rheumatic disease were confirmed to have that disease by a rheumatologist. […] Controls were matched by age and gender and carried none of the following diagnoses: RA, lupus, Sjögren's disease, scleroderma, psoriasis, psoriatic arthritis, ankylosing spondylitis, reactive arthritis, ulcerative colitis, Crohn's disease, multiple sclerosis, type I diabetes, hematologic malignancy, or past COVID-19.
Enzyme Linked Immunosorbent Assay (ELISA): For peptide ELISA, plates were coated with 5 μg/ml streptavidin (Thermo Fisher Scientific) for 1 hour at room temperature (RT) or overnight at 4 degrees Celsius, washed with PBS, then coated with 0.1-1.0 μM of peptide conjugated to biotin at the C terminus (Biomatik, Kitchener, Canada or Peptide2.0, Chantilly, Va., USA) for 1 hour at RT. For IgG Fc ELISA, plates were coated overnight at 4° C. with 10 μg/ml IgG Fc in PBS in 4 forms: treated with PADs in buffer, treated with 0.1M KOCN in dH2O, diluted in citrullination buffer, diluted in dH2O. After washing with PBS, plates were blocked for 1 hour to overnight at RT with 5% non-fat dried milk in 0.2% Tween 20 in PBS (serum ELISA block) or 1% BSA in PBS (mAMPA ELISA block without 0.1% Tween 20). Sera diluted 1:100, 1:200 or 1:2000 in serum ELISA block or 1 μg/m1mAMPAs in mAMPA ELISA block were applied to plates overnight at 4° C. […] After one hour at RT, plates were washed, developed with 3,3′,5,5′-tetramethylbenzidine (Thermo Fisher Scientific), then stopped with 0.18 M sulfuric acid. Plates were read on a FilterMAX F3 (Molecular Devices, San Jose, USA) at 450 and 562, with 562 values subtracted from 450 values for each sample. For each sample, absorbance values for uncoated wells were subtracted from peptide- or Fc-coated wells to exclude non-specific binding, and absorbance values for PAD-containing buffer were subtracted from wells coated with PAD-treated IgG Fc to exclude anti-PAD reactivity.

[3] = tested on: serum IgG (rheumatoid factors); assay: Peptide ELISA: serum IgG binding to biotinylated IgG1-derived peptides; parameters: species or system human; conditions: for Serum IgG binding to the peptide compared to controls: FIG. 3; for IgG binding to the peptide: Sjogren's disease subjects previously RF positive versus matched controls, FIG. 9B
[4] = tested on: serum IgM (rheumatoid factors); assay: Peptide ELISA: serum IgM binding to biotinylated IgG1-derived peptides; parameters: species or system human; conditions: for IgM that binds to the peptide: COVID-19 convalescent subjects versus RA+, RA−, smokers and naïve controls, FIG. 8A; for IgM binding to the peptide: Sjogren's disease subjects previously RF positive versus matched controls, FIG. 9B
[5] = COVID-19 convalescent subjects, 5 weeks post-symptom resolution (n=121)
[6] = Control (non-smoking COVID-19 naïve controls without autoimmune disease, n=54)
[7] = RA+ (seropositive rheumatoid arthritis subjects, n=31)
[8] = RA− (seronegative rheumatoid arthritis subjects, n=26)

Row | Sequence | Plasma IgG that binds to the peptide [2] | IgM that binds to the peptide [4] | Percent of subjects that would be considered seropositive for IgM antibodies against the peptide using a preliminary cutoff [4, 5] [%] | Percent of subjects that would be considered seropositive for IgM antibodies against the peptide using a preliminary cutoff [4, 6] [%] | Percent of subjects that would be considered seropositive for IgM antibodies against the peptide using a preliminary cutoff [4, 7] [%] | Percent of subjects that would be considered seropositive for IgM antibodies against the peptide using a preliminary cutoff [4, 8] [%] | IgM binding to the peptide [4] | Percent of subjects that would be considered seropositive for IgM antibodies against the peptide using a preliminary cutoff ([4]; Smoker (current smokers, n=10)) [%] | IgG binding to the peptide [3] | also measured
1 | LYSKLTVDKSBWQQGNVFS (LYSKLTVDKS[Cit]WQQGNVFS) [Peptide P01857-289B, citrulline (B)-containing IgG1 peptide, position 289] | – | – | – | – | – | – | – | – | – | Plasma IgM that binds to the peptide [1]: higher
2 | LYSJLTVDJSRWQQGNVFS [Peptide P01857-289J] | higher | – | – | – | – | – | – | – | – | –
3 | TYICNVNHJPSNTJVDJJVEPJSC [Peptide P01857-80J] | higher | – | – | – | – | – | – | – | – | –
4 | CPPCPAPELLGGPSV (IgG epitope) [Peptide P01857-109, native peptide from the hinge region of IgG1 starting at position 109] | – | – | – | – | – | – | – | – | – | Serum IgG binding to the peptide compared to controls ([3]; anti-CCP+RF+ RA): trend towards increased binding; Serum IgG binding to the peptide compared to controls ([3]; anti-CCP-RF− RA): no increased binding; Serum IgG binding to the peptide compared to controls ([3]; anti-SSA+ Sjögren's disease): significantly increased binding; Serum IgG binding to the peptide compared to controls ([3]; lupus): but not lupus or spondyloarthropathy serum IgG, had significantly increased binding; Serum IgG binding to the peptide compared to controls ([3]; spondyloarthropathy): but not lupus or spondyloarthropathy serum IgG, had significantly increased binding
5 | LAPSSJSTSGGTAALGC [Peptide P01857-11J] | higher | – | – | – | – | – | – | – | – | –
6 | LTVDKSRWQQGNVFSC (IgG epitope) [Peptide P01857-293, native IgG1 peptide, position 293] | – | increased | 12 | 0 | 3 | 0 | not bound | 0 | not bound | IgG that binds to the peptide ([3]; COVID-19 convalescent subjects versus RA+, RA−, smokers and naïve controls, FIG. 8B): increased
7 | YJCJVSNJALPAP [Peptide P01857-202J] | higher | – | – | – | – | – | – | – | – | –
8 | KDTLMISRTPEVTCVV (IgG epitope) [Peptide P01857-131, native IgG1 peptide, position 131] | – | increased | 45 | 2 | 0 | 0 | not bound | 0 | not bound | –
9 | RDELTKNQVSLTCLVK (IgG epitope) [Peptide P01857-238, native IgG1 peptide, position 238] | – | increased | 44 | 0 | 6 | 4 | not bound | 0 | not bound | –
10 | DKTHTCPPCPAPELLG (IgG epitope) [Peptide P01857-104, native IgG1 hinge peptide, position 104] | – | – | 14 | 2 | 23 | 12 | bound | 20 | bound | –
